Measured values from patent US9468650B2, “Inhibition of endosomal toll-like receptor activation” (DUKE UNIVERSITY, priority 2009, dated 2016).

Experiments:
mammalian cell lines = details: cited from earlier work
[1] = mouse, in vivo, 40 mg/kg
TLR3 = assay: Cytokine production (TNFα, IL-6) of murine macrophage Raw264.7 stimulated with poly I:C; assay type: cell-based; details: TNFα and IL-6 by ELISA
[2] = mouse, in vivo; cited from earlier work

## Poly(allylamine) [PAL]
Mammalian cell lines
  cytotoxicity (remark): 1. Commercially available. 2. Highly positive charged 3. Low toxicity.

## Polyethyleneimine [PEI]
Mammalian cell lines
  cytotoxicity (remark): 3. high cytotoxicity.

## polyamidoamine dendrimer, 1,4-diaminobutane core, G3 [PAMAM]
Raw264.7 cells
  concentration inducing over 50% cell death: about 160 μg/ml
[1]
  adverse effects on viability of mice: no adverse effects on viability

## protamine [reference compound]
TLR3
  effect on poly I:C (TLR3 ligand) induced inflammatory cytokine production: did not block but significantly enhanced
Raw264.7 cells
  concentration inducing over 50% cell death: ~280 µg/mL

## β-cyclodextrin-containing polycation [CDP]
[2]
  LD50: 200 mg/kg
Raw264.7 cells
  tolerability on macrophages: well tolerated
[1]
  adverse effects on viability of mice: no adverse effects on viability
